# Measured values from PMC4014704, “β-Boomerang Antimicrobial and Antiendotoxic Peptides: Lipidation and Disulfide Bond Effects on Activity and Structure” (Pharmaceuticals, 2014).
# Peptide text beside a SMILES is read from it.
# Conditions: buffers
# Source text: In addition, incorporation of disulfide bridges in AMPs may stabilize conformations and enhance cationicity and hydrophobicity required for enhanced activity. […] Residue Ile10 was chosen for Cys replacement since this residue is located at the exposed face of the β-strand of the YI12WF structure (Figure 1).
# The solution conformations of YI13C, C4YI13C peptides were examined in free solution using two-dimensional ^1H-^1H NOESY and TOCSY experiments.
row,Structure (SMILES),Solubility in buffers (in words)
1,"CCCC(=O)N[C@@H](Cc1ccc(O)cc1)C(=O)N[C@H](C(=O)N[C@@H](CC(C)C)C(=O)N[C@@H](Cc1c[nH]c2ccccc12)C(=O)N[C@@H](CCCCN)C(=O)N[C@@H](CCCNC(=N)N)C(=O)N[C@@H](CCCCN)C(=O)N[C@@H](CCCNC(=N)N)C(=O)N[C@@H](Cc1ccccc1)C(=O)N[C@@H](CSSC[C@H](NC(=O)[C@H](Cc1ccccc1)NC(=O)[C@H](CCCNC(=N)N)NC(=O)[C@H](CCCCN)NC(=O)[C@H](CCCNC(=N)N)NC(=O)[C@H](CCCCN)NC(=O)[C@H](Cc1c[nH]c2ccccc12)NC(=O)[C@H](CC(C)C)NC(=O)[C@@H](NC(=O)[C@H](Cc1ccc(O)cc1)NC(=O)CCC)C(C)C)C(=O)N[C@@H](Cc1ccccc1)C(=O)N[C@H](C(N)=O)[C@@H](C)CC)C(=O)N[C@@H](Cc1ccccc1)C(=O)N[C@H](C(N)=O)[C@@H](C)CC)C(C)C [C4YI12WFC] (HELM PEPTIDE1{[CCCC(=O)[*:2]].Y.V.L.W.K.R.K.R.F.C.F.I.[am]}|PEPTIDE2{[CCCC(=O)[*:2]].Y.V.L.W.K.R.K.R.F.C.F.I.[am]}$PEPTIDE1,PEPTIDE2,11:R3-11:R3$$$V2.0)",remained insoluble in buffers
2,CCCC(=O)N[C@@H](Cc1ccc(O)cc1)C(=O)N[C@H](C(=O)N[C@@H](CC(C)C)C(=O)N[C@@H](Cc1c[nH]c2ccccc12)C(=O)N[C@@H](CCCCN)C(=O)N[C@@H](CCCNC(=N)N)C(=O)N[C@@H](CCCCN)C(=O)N[C@@H](CCCNC(=N)N)C(=O)N[C@@H](Cc1ccccc1)C(=O)N[C@H](C(=O)N[C@@H](Cc1ccccc1)C(=O)N[C@H](C(N)=O)[C@@H](C)CC)[C@@H](C)CC)C(C)C [C4YI12WF] (HELM PEPTIDE1{[CCCC(=O)[*:2]].Y.V.L.W.K.R.K.R.F.I.F.I.[am]}$$$$V2.0),remained insoluble in buffers
3,"CCCCCCCC(=O)N[C@@H](Cc1ccc(O)cc1)C(=O)N[C@H](C(=O)N[C@@H](CC(C)C)C(=O)N[C@@H](Cc1c[nH]c2ccccc12)C(=O)N[C@@H](CCCCN)C(=O)N[C@@H](CCCNC(=N)N)C(=O)N[C@@H](CCCCN)C(=O)N[C@@H](CCCNC(=N)N)C(=O)N[C@@H](Cc1ccccc1)C(=O)N[C@@H](CSSC[C@H](NC(=O)[C@H](Cc1ccccc1)NC(=O)[C@H](CCCNC(=N)N)NC(=O)[C@H](CCCCN)NC(=O)[C@H](CCCNC(=N)N)NC(=O)[C@H](CCCCN)NC(=O)[C@H](Cc1c[nH]c2ccccc12)NC(=O)[C@H](CC(C)C)NC(=O)[C@@H](NC(=O)[C@H](Cc1ccc(O)cc1)NC(=O)CCCCCCC)C(C)C)C(=O)N[C@@H](Cc1ccccc1)C(=O)N[C@H](C(N)=O)[C@@H](C)CC)C(=O)N[C@@H](Cc1ccccc1)C(=O)N[C@H](C(N)=O)[C@@H](C)CC)C(C)C [C8YI12WFC] (HELM PEPTIDE1{[CCCCCCCC(=O)[*:2]].Y.V.L.W.K.R.K.R.F.C.F.I.[am]}|PEPTIDE2{[CCCCCCCC(=O)[*:2]].Y.V.L.W.K.R.K.R.F.C.F.I.[am]}$PEPTIDE1,PEPTIDE2,11:R3-11:R3$$$V2.0)",remained insoluble in buffers
4,CCCCCCCC(=O)N[C@@H](Cc1ccc(O)cc1)C(=O)N[C@H](C(=O)N[C@@H](CC(C)C)C(=O)N[C@@H](Cc1c[nH]c2ccccc12)C(=O)N[C@@H](CCCCN)C(=O)N[C@@H](CCCNC(=N)N)C(=O)N[C@@H](CCCCN)C(=O)N[C@@H](CCCNC(=N)N)C(=O)N[C@@H](Cc1ccccc1)C(=O)N[C@H](C(=O)N[C@@H](Cc1ccccc1)C(=O)N[C@H](C(N)=O)[C@@H](C)CC)[C@@H](C)CC)C(C)C [C8YI12WF] (HELM PEPTIDE1{[CCCCCCCC(=O)[*:2]].Y.V.L.W.K.R.K.R.F.I.F.I.[am]}$$$$V2.0),remained insoluble in buffers
